For assay [1], the system named is differentiated L6-myotubes. The experiment in a line: Glucose uptake screen (Biological example 1 of WO 2019/053427). It counts as cell-based. To be noted: compound at 10 μM, activity relative to isoproterenol at 10 μM, read-out: Biological example 1 of WO 2019/053427 (GU). The procedure:
(§1) Compounds described in publications referenced and incorporated herein were screened in accordance with the procedures outlined in Biological example 1 and Biological example 2 of WO 2019/053427.
L6-myoblasts were grown in Dulbecco's Modified Eagle's Medium (DMEM) containing 1 g/L glucose supplemented with 10% fetal bovine serum (FBS), 2 mM L-glutamine, 50 U/mL penicillin, […] streptomycin and 10 mM HEPES. Cells were plated at 1x 10^5 cells per mL in 24-well plates. After reaching 90% confluence the cells were grown in medium containing 2% FBS for 7 days where upon cells differentiated into myotubes. The differentiated L6-myotubes were serum-starved overnight in medium containing 0.5% fatty-acid free BSA and stimulated with Compound A at a final concentration of 1×10^−5 M in the presence of the selective β2-adrenergic receptor antagonist ICI-118551. After 1 h 40 min the cells were washed with warm, glucose free medium twice and another portion of agonist was added to the glucose free medium. After another 20 min of incubation the cells were exposed to 50 nM ^3H-2-deoxyglucose for 10 min before washed in ice cold glucose free medium three times and lysed in 400 µl/well 0.2 M NaOH for 1 h at 60° C. The cell lysate was mixed with 4 ml scintillation buffer (Emulsifier Safe, Perkin Elmer) and the radioactivity was detected in a P-counter (Tri-Carb 4810TR, Perkin Elmer).

The test system of assay [2] is differentiated L6-myotubes. The experiment in a line: cAMP production relative to isoprenaline (Biological example 2 of WO 2019/053427). The conditions noted are these: 0.25 h, compound at 10 μM, activity relative to isoproterenol at 10 μM. It counts as cell-based.
Excerpt: For example, the level of cAMP production induced by a given compound can be determined by reference to the amount induced by a defined concentration of that compound relative to that induced by the same concentration of a reference compound, such as isoprenaline, using techniques known to those skilled in the art (e.g. following the protocol as described in the biological examples provided in WO 2019/053427, i.e. in cells, such as differentiated L6-myotubes, having been stimulated with isoprenaline or the compound with a final concentration of 1×10^−5 M, for 15 min in stimulation buffer, such as HBSS supplemented with 1% BSA, 5 mM HEPES and 1 mM IBMX, at pH 7.4).
as §1

As to `CCCCNCC(O)c1cc[nH]c(=O)c1` (stereo not drawn) [Compound 62, 4-[2-(butylamino)-1-hydroyxethyl]-2(1H)-pyridinone], the Emax at 10 µM was 25 to 50% in assay [1] and < 25% in assay [2].

Regarding `CC1(C)CC[C@H]([C@H](O)c2cncc(O)c2)N1` [Compound 167, 5-{(R)-[(R)-5,5-dimethyl-2-pyrrolidinyl]hydroxymeth-yl}-3-pyridinol], the Emax at 10 µM is 50 to 75% in assay [1] and < 25% in assay [2].

Take `CO[C@H]1CC[C@@H](CCNC[C@H](O)c2cncc(F)c2)CC1` [Compound 238, (R)-1-(5-fluoro-3-pyridyl)-2-{2-[(1s,4S)-4-methoxycyclohexyl]ethyl-amino}-1-ethanol]: the figures for the Emax at 10 µM in assay [1] and in assay [2] were > 75% and < 25%, respectively.

Turning to `CC1(C)CCC[C@H]([C@@H](O)c2cccc(F)c2)N1` [Compound 101, (S)-[(R)-6,6-dimethyl-2-piperidyl](m-fluorophenyl)methanol], the Emax at 10 µM in assay [1] is 25 to 50%; in assay [2], < 25%.

For `CC(C)(CC[C@H]1CC[C@@H](O)CC1)NC[C@H](O)c1cncc(F)c1` [Compound 296, (R)-2-{1,1-dimethyl-3-[(1s,4R)-4-hydroxycyclohexyl]propylamino}-1-(5-fluoro-3-pyridyl)-1-ethanol], the Emax at 10 µM in assay [1] is > 75%; in assay [2], < 25%.

Consider `Oc1ccc(C(O)CNC23CC4CC(CC(C4)C2)C3)cc1` (stereo not drawn) [Compound 11, p-[2-(1-adamantanylamino)-1-hydroxyethyl]phenol], for which the Emax at 10 µM in assay [1] is 25 to 50%; in assay [2] it was < 25%.

In the case of `COCC12CCC([C@H](O)c3cccc(F)c3)(CC1)N2` [Compound 330, (R)-(m-fluorophenyl){4-(methoxymethyl)-7-azabicyclo[2.2.1]hept-1-yl}methanol], the Emax at 10 µM in assay [1] was > 75%; in assay [2] it was < 25%.

For `O[C@@H](c1ccccc1F)C12CCC(CCc3cccnc3)(CC1)N2` [Compound 547, (S)-(o-fluorophenyl){4-[2-(3-pyridyl)ethyl]-7-azabicyclo[2.2.1]hept-1-yl}methanol], the results for the Emax at 10 µM in assay [1] and in assay [2] were > 75% and < 25%, respectively.

Regarding `CO[C@H]1CC[C@H](CCCNC[C@H](O)c2cncc(F)c2)CC1` [Compound 261, (R)-1-(5-fluoro-3-pyridyl)-2-{3-[(1r,4S)-4-methoxycyclohexyl]propyl-amino}-1-ethanol], the Emax at 10 µM in assay [1] and in assay [2] was < 25% throughout.

In the case of `CC12CC(C1)[C@H]([C@@H](O)c1cncc(F)c1)N2` [Compound 222, (S)-{(R)-1-methyl-2-azabicyclo[2.1.1]hex-3-yl}(5-fluoro-3-pyridyl)methanol], the Emax at 10 µM in assay [1] and in assay [2] was < 25% in each case.

On to `CCC[C@@H]1CC[C@H]([C@H](O)c2cccc(F)c2)N1` [Compound 58, (R)-[(2R,5R)-5-propyl-2-pyrrolidinyl](m-fluorophenyl)methanol], for which the Emax at 10 µM in assay [1] was > 75%; in assay [2], 25 to 50%.

On to `CCC[C@@H]1CCC[C@@H]([C@@H](O)c2cccc(Cl)c2)N1` [Compound 114, (S)-[(2S,6R)-6-propyl-2-piperidyl](m-chlorophenyl)methanol], for which the Emax at 10 µM was 25 to 50% in assay [1] and < 25% in assay [2].

`CN([C@H]1CC[C@@H](CC(C)(C)NC[C@H](O)c2cccc(F)c2)CC1)S(C)(=O)=O` [Compound 498, (R)-2-{1,1-dimethyl-2-[(1s,4S)-4-(N-mesyl-N-methylamino)cyclohexyl]ethylamino}-1-(m-fluorophenyl)-1-ethanol]: the figures for the Emax at 10 µM in assay [1] and in assay [2] were 25 to 50% and < 25%, respectively.

In the case of `CCC[C@H]1CCCC[C@@H]([C@H](O)c2cncc(F)c2)N1` [Compound 234, (R)-[(2S,7S)-7-propyl-2-azepanyl](5-fluoro-3-pyridyl)methanol], the Emax at 10 µM is > 75% in assay [1] and < 25% in assay [2].

As to `CC(=O)N[C@H]1CC[C@H](C(C)(C)NC[C@H](O)c2cncc(F)c2)CC1` [Compound 346, N-[(1R,4r)-4-{1-[(R)-2-(5-fluoro-3-pyridyl)-2-hydroxyethylamino]-1-methylethyl}cyclohexyl]acetamide], the results for the Emax at 10 µM in assay [1] and in assay [2] were > 75% and < 25%, respectively.

As for `CC(=O)N[C@H]1CC[C@H](CNC[C@H](O)c2cncc(F)c2)CC1` [Compound 309, N-[(1R,4r)-4-{[(R)-2-(5-fluoro-3-pyridyl)-2-hydroxyethylamino]methyl}cyclohexyl]acetamide], the figures for the Emax at 10 µM in assay [1] and in assay [2] were 50 to 75% and < 25%, respectively.

With `CC(C)(NC[C@H](O)c1cccc(F)c1)[C@H]1CC[C@H](O)CC1` [Compound 283, (R)-1-(m-fluorophenyl)-2-{1-methyl-1-[(1r,4R)-4-hydroxycyclohexyl]ethyl-amino}-1-ethanol], the Emax at 10 µM in assay [1] was 50 to 75%; in assay [2] it was < 25%.

Regarding `C[C@H]1CC[C@@H]([C@H](O)c2cccc(O)c2)N1` (racemic) [Compound 40, Racemic mixture of m-{(R)-[(2S,5S)-5-methyl-2-pyrrolidinyl]hydroxymeth-yl}phenol and m-{(S)-[(2R,5R)-5-methyl-2-pyrrolidinyl]hydroxymeth-yl}phenol], the Emax at 10 µM in assay [1] is 50 to 75%; in assay [2], < 25%.

For the compound `Oc1ccc(C(O)CNC2CCCC2)cc1` (stereo not drawn) [Compound 10, p-[2-(cyclopentylamino)-1-hydroxyethyl]phenol], the Emax at 10 µM in assay [1] is 50 to 75%; in assay [2], < 25%.

For the compound `CC1(C)CC[C@H]([C@H](O)c2cccc(O)c2)N1` [Compound 112, m-{(R)-[(R)-5,5-dimethyl-2-pyrrolidinyl]hydroxymeth-yl}phenol], the values for the Emax at 10 µM in assay [1] and in assay [2] were > 75% and < 25%, respectively.

`CCC[C@H]1CCC[C@H]([C@@H](O)c2cc(F)cc(F)c2)N1` [Compound 66, (S)-[(2R,6S)-6-propyl-2-piperidyl](3,5-difluorophenyl)methanol]: the figures for the Emax at 10 µM in assay [1] and in assay [2] were 25 to 50% and < 25%, respectively.

As to `O[C@@H](CNCC[C@H]1CC[C@H](O)CC1)c1cncc(F)c1` [Compound 294, (R)-1-(5-fluoro-3-pyridyl)-2-{2-[(1r,4R)-4-hydroxycyclohexyl]ethylamino}-1-ethanol], the Emax at 10 µM was 25 to 50% in assay [1] and < 25% in assay [2].

In the case of `CC1(C)CCC[C@H]([C@H](O)c2cccc(F)c2)N1` [Compound 102, (R)-[(R)-6,6-dimethyl-2-piperidyl](m-fluorophenyl)methanol], the Emax at 10 µM is 50 to 75% in assay [1] and < 25% in assay [2].

On to `CC12CCC([C@@H](O)c3ccccc3Cl)(CC1)N2` [Compound 194, (S)-(o-chlorophenyl)(4-methyl-7-azabicyclo[2.2.1]hept-1-yl)methanol], for which the Emax at 10 µM in assay [1] was > 75%; in assay [2] it was < 25%.

In the case of `CCC[C@@H]1CC[C@@H]([C@@H](O)c2cccc(F)c2)N1` [Compound 133, (S)-[(2S,5R)-5-propyl-2-pyrrolidinyl](m-fluorophenyl)methanol], the Emax at 10 µM is 50 to 75% in assay [1] and < 25% in assay [2].

Consider `CC(C)(C[C@H]1CC[C@@H](NS(=O)(=O)C2CC2)CC1)NC[C@H](O)c1cccc(F)c1` [Compound 494, (R)-2-{1,1-dimethyl-2-[(1s,4S)-4-(cyclopropylsuflonylamino)cyclohexyl]ethylamino}-1-(m-fluorophenyl)-1-ethanol], for which the Emax at 10 µM in assay [1] was 25 to 50%; in assay [2] it was < 25%.

With `CO[C@H]1CC[C@H](CC(C)(C)NC[C@H](O)c2cncc(F)c2)CC1` [Compound 250, (R)-2-{1,1-dimethyl-2-[(1r,4R)-4-methoxycyclohexyl]ethyl-amino}-1-(5-fluoro-3-pyridyl)-1-ethanol], the Emax at 10 µM in assay [1] is 50 to 75%; in assay [2] it was < 25%.

For `CC12CC(C1)[C@H]([C@@H](O)c1cccc(F)c1)N2` [Compound 187, (S)-{(R)-1-methyl-2-azabicyclo[2.1.1]hex-3-yl}(m-fluorophenyl)methanol], the values for the Emax at 10 µM in assay [1] and in assay [2] were 25 to 50% and < 25%, respectively.

On to `CCCCNC[C@H](O)c1ccccc1F` [Compound 79, (R)-2-(butylamino)-1-(o-fluorophenyl)-1-ethanol], for which the Emax at 10 µM in assay [1] is > 75%; in assay [2] it was < 25%.

As for `CC(C)(C[C@H]1CC[C@@H](NC(=O)OC(C)(C)C)CC1)NC[C@H](O)c1cccc(C#N)n1` [Compound 414], the Emax at 10 µM in assay [1] was 50 to 75%; in assay [2] it was < 25%.

The values are drawn from patent US20260256751A1, “COMBINATION OF BETA-2-ADRENERGIC RECEPTOR AGONISTS AND GLP-1 RECEPTOR AGONISTS FOR USE IN TREATING HYPERGLYCAEMIA” (ATROGI AB, priority 2023, published 2026).
